Read-outs that look alike come from different tables or passages of the source.
What was measured:
[1] = Pharmacokinetic study in rat plasma after oral administration of QJYQ (UHPLC-sMRM); format: in vivo, Sprague-Dawley rats
Procedure: Exion LC AD tandem Blueline 3500 triple quadrupole mass spectrometer (AB SCIEX, Framingham, MA, United States) was used to thirty-three compounds in rat plasma. […] The whole detailed parameters of sMRM were obtained in Supplementary Table S1.
Rat plasma (100 μL) was mixed with 10% formic acid (10 μL) and vortexed for 1 min at room temperature. ISs (10 μL) and methanol/acetonitrile (1/1, v/v) (400 μL) were added and vortexed for 5 min, then centrifuged for 10 min at 14,000 rpm and 4°C. The transported supernatant was condensed to dryness under the flow of nitrogen gas. The dried residue was reconstituted with 70% methanol (100 μL) by vortex-mixing for 5 min and centrifuging at 14,000 rpm for 10 min. Last, 2 μL of the solution were injected into the UHPLC-sMRM system.
The pharmacokinetic study was approved by the Animal Ethics Committee of Tianjin University of Traditional Chinese Medicine (TCM-LAEC2021228). Ten male Sprague-Dawley rats (weight 220–240 g) was kept at the animal center of Tianjin University of Traditional Chinese Medicine (Tianjin, China). […] The sample was transferred right away following a 10 min period of centrifugation at 7000 rpm and 4°C. All plasma samples were frozen and stored at −80°C.
All the pharmacokinetic parameters were calculated using the DAS 1.0 software (Drug and Statistics 1.0, Medical College of Wannan, China). Pharmacokinetic parameters include the maximum drug concentration in plasma (Cmax), the time to achieve maximum drug concentration (Tmax), the area under the plasma concentration-time curve (AUC), elimination half-life (T1/2), and mean residence time (MRT). The pharmacokinetic parameters were computed using the non-compartmental model. All data are expressed as mean ± standard deviation (SD). GraphPad Prism 8.0 (GraphPad Software Inc., La Jolla, CA, United States) software was used to draw the drug-time curve.

[2] = Stability of analytes in rat plasma (auto-sampler, freeze-thaw, room temperature, long-term); details: for Room temperature for 24 h Accuracy (%): room temperature 24 h; for Freeze thaw cycles Accuracy (%): three freeze-thaw cycles; for −80°C for 1month Accuracy (%): −80°C 1 month; for Autosampler for 24 h Accuracy (%): autosampler 24 h
Procedure: (§1) The stability of analytes in plasma was evaluated by analyzing 4 QC samples (n = 6). The stability was included auto-sampler stability (keeping the sample in auto-sampler for 24 h), three times of freeze-thaw cycles stability (freezing cycle at −80°C, thawing cycle at room temperature), room temperature stability (storing samples at room temperature for 24 h), long-term stability (storing samples at −80°C for 1 month). […] Accompanying curve was established when testing the sample, calculate and compare the ratio of the actual measured concentration to the theoretical concentration, expressed in accuracy and RSD.

[3] = Stability of the working solution (4°C for 1 month); format: physicochemical
Procedure: as §1

[4] = male, Sprague-Dawley, rat plasma, oral QJYQ 3.15 g/kg, n = 8, mean ± SD
[5] = male, Sprague-Dawley, rat plasma, oral QJYQ 3.15 g/kg, n = 8, mean ± SD, read-out: AUC(0-t)
[6] = male, Sprague-Dawley, rat plasma, oral QJYQ 3.15 g/kg, n = 8, mean ± SD, read-out: AUC(0-∞)
[7] = male, Sprague-Dawley, rat plasma, oral QJYQ 3.15 g/kg, n = 8, mean ± SD, read-out: Cmax
[8] = male, Sprague-Dawley, rat plasma, oral QJYQ 3.15 g/kg, n = 8, mean ± SD, read-out: MRT (0-∞)
[9] = male, Sprague-Dawley, rat plasma, oral QJYQ 3.15 g/kg, n = 8, mean ± SD, read-out: MRT(0-t)
[10] = male, Sprague-Dawley, rat, in vivo, po, 3.15 g/kg

COc1ccc(/C=C/C(=O)O)cc1O [isoferulic acid]
half-life [1, 4]: 4.68 ± 0.41 h | AUC(0-t) [1, 5]: 347 ± 120 ng·h/mL | AUC(0-inf) [1, 6]: 354 ± 132 ng·h/mL | Cmax [1, 7]: 235 ± 81.1 ng/mL | MRT inf [1, 8]: 5.85 ± 3.26 h | MRT last [1, 9]: 5.25 ± 2.87 h | Room temperature for 24 h Accuracy (%) ([2]; 50 ng/mL): 108.0% | Freeze thaw cycles Accuracy (%) ([2]; 50 ng/mL): 95.7% | −80°C for 1month Accuracy (%) ([2]; 50 ng/mL): 90.8% | Autosampler for 24 h Accuracy (%) ([2]; 100 ng/mL): 88.3% | Room temperature for 24 h Accuracy (%) ([2]; 100 ng/mL): 87.5% | Freeze thaw cycles Accuracy (%) ([2]; 100 ng/mL): 86.2% | −80°C for 1month Accuracy (%) ([2]; 100 ng/mL): 85.5% | Autosampler for 24 h Accuracy (%) ([2]; 200 ng/mL): 102.0% | Room temperature for 24 h Accuracy (%) ([2]; 200 ng/mL): 87.2% | Autosampler for 24 h Accuracy (%) ([2]; 500 ng/mL): 104.0% | Freeze thaw cycles Accuracy (%) ([2]; 500 ng/mL): 95.6% | −80°C for 1month Accuracy (%) ([2]; 500 ng/mL): 106.0% | Working solution Accuracy (%) ([3]; 50 ng/mL): 100.0% | Working solution Accuracy (%) ([3]; 100 ng/mL): 95.7% | Working solution Accuracy (%) ([3]; 200 ng/mL): 104.0%

O=C1C[C@@H](c2ccc(O[C@@H]3O[C@H](CO)[C@@H](O)[C@H](O)[C@H]3O)cc2)Oc2cc(O)ccc21 [liquiritin]
AUC(0-inf) [1, 10]: 16.4 ± 5.06 ng·h/mL | AUC(0-t) [1, 10]: 16.3 ± 5.11 ng·h/mL | Cmax [1, 10]: 7.08 ± 2.25 ng/mL | MRT inf [1, 10]: 6.8 ± 1.19 h | MRT last [1, 10]: 6.4 ± 0.98 h | Tmax ([1]; male, Sprague-Dawley, rat, in vivo, po, 3.15 g/kg, Tmax): 0.52 ± 0.1 h | T1/2 ([1]; rat plasma, oral QJYQ 3.15 g/kg, n = 8, mean ± SD): 4.30 ± 3.09 h | Autosampler for 24 h Accuracy (%) ([2]; 1.56 ng/mL): 84.0% | Room temperature for 24 h Accuracy (%) ([2]; 1.56 ng/mL): 111.0% | Freeze thaw cycles Accuracy (%) ([2]; 1.56 ng/mL): 110.0% | Autosampler for 24 h Accuracy (%) ([2]; 12.5 ng/mL): 108.0% | Room temperature for 24 h Accuracy (%) ([2]; 12.5 ng/mL): 94.4% | −80°C for 1month Accuracy (%) ([2]; 12.5 ng/mL): 94.1% | Autosampler for 24 h Accuracy (%) ([2]; 100 ng/mL): 94.1% | Room temperature for 24 h Accuracy (%) ([2]; 100 ng/mL): 90.6% | Freeze thaw cycles Accuracy (%) ([2]; 100 ng/mL): 85.8% | −80°C for 1month Accuracy (%) ([2]; 100 ng/mL): 103.0% | Autosampler for 24 h Accuracy (%) ([2]; 500 ng/mL): 91.2% | Room temperature for 24 h Accuracy (%) ([2]; 500 ng/mL): 89.3% | Freeze thaw cycles Accuracy (%) ([2]; 500 ng/mL): 87.0% | −80°C for 1month Accuracy (%) ([2]; 500 ng/mL): 108.0% | Working solution Accuracy (%) ([3]; 1.56 ng/mL): 99.4% | Working solution Accuracy (%) ([3]; 12.5 ng/mL): 94.1% | Working solution Accuracy (%) ([3]; 100 ng/mL): 100.0% | Working solution Accuracy (%) ([3]; 500 ng/mL): 86.6%

O=C(O)C=Cc1ccc(O)cc1 [p-Coumaric acid]
half-life [1, 4]: 1.79 ± 0.38 h | AUC(0-t) [1, 5]: 381 ± 101 ng·h/mL | AUC(0-inf) [1, 6]: 385 ± 126 ng·h/mL | Cmax [1, 7]: 153 ± 33.4 ng/mL | MRT inf [1, 8]: 3.63 ± 1.57 h | MRT last [1, 9]: 3.03 ± 1.01 h | Autosampler for 24 h Accuracy (%) ([2]; 1.56 ng/mL): 83.2% | Room temperature for 24 h Accuracy (%) ([2]; 1.56 ng/mL): 82.7% | Freeze thaw cycles Accuracy (%) ([2]; 1.56 ng/mL): 95.1% | −80°C for 1month Accuracy (%) ([2]; 1.56 ng/mL): 110.0% | Autosampler for 24 h Accuracy (%) ([2]; 12.5 ng/mL): 102.0% | Room temperature for 24 h Accuracy (%) ([2]; 12.5 ng/mL): 96.1% | Freeze thaw cycles Accuracy (%) ([2]; 12.5 ng/mL): 95.2% | −80°C for 1month Accuracy (%) ([2]; 12.5 ng/mL): 85.1% | Autosampler for 24 h Accuracy (%) ([2]; 100 ng/mL): 96.9% | Room temperature for 24 h Accuracy (%) ([2]; 100 ng/mL): 98.7% | Freeze thaw cycles Accuracy (%) ([2]; 100 ng/mL): 87.0% | −80°C for 1month Accuracy (%) ([2]; 100 ng/mL): 115.0% | Autosampler for 24 h Accuracy (%) ([2]; 500 ng/mL): 115.0% | Room temperature for 24 h Accuracy (%) ([2]; 500 ng/mL): 97.8% | Freeze thaw cycles Accuracy (%) ([2]; 500 ng/mL): 88.7% | −80°C for 1month Accuracy (%) ([2]; 500 ng/mL): 109.0% | Working solution Accuracy (%) ([3]; 1.56 ng/mL): 81.9% | Working solution Accuracy (%) ([3]; 100 ng/mL): 95.9% | Working solution Accuracy (%) ([3]; 500 ng/mL): 92.8%

Source: paper PMC10133546, “Simultaneous determination of multiple components in rat plasma by UHPLC-sMRM for pharmacokinetic studies after oral administration of Qingjin Yiqi Granules” (Frontiers in Pharmacology, 2023)
